From patent publication US20070254288A1, “Diagnostic methods for pain sensitivity and chronicity and for tetrahydrobiopterin-related disorders” (The General Hospital Corporation, priority 2005, published 2007)
Entries after “also recorded” stand apart in the source; their conditions may differ. Counter-ions that a name gives are not always drawn.

Assays:
biopterin = assay: Forskolin stimulation of whole blood from healthy volunteers: biopterin; assay type: cell-based, human; details: 10 μM, 24 h
Excerpt: FIGS. 14C-14F show the effect of forskolin on patient white blood cells. […] White bars unstimulated; grey after stimulation. […] Results represent means with SEM.

[1] = test system: cultured adult rat DRG neurons; assay: Calcium imaging (fura-2) in cultured adult rat DRG neurons; assay type: cell-based
Description: Miniature EPSCs were recorded at −70 mV by whole cell patch clamp in adult rat transverse spinal cord slices (Baba et al., Mol Cell Neurosci 24:818-830 (2003)). Intracellular [Ca]I was measured fluorometrically (ΔF 340/380) in cultured adult DRG neurons loaded with fura-2. 6R-BH4 (0.3-10 μM), DEA-NONOate (50 μM), and L-NAME (10-100 μM) were applied using a multibarrel fast drug delivery system.

Sprague Dawley rats [2] = assay: Nociceptive thresholds in naïve animals (von Frey, radiant heat); assay type: in vivo, rat
Description: (§1) Animals were fully habituated and experiments performed blinded. Threshold for eliciting a withdrawal reflex to graded strength monofilament von Frey hairs (0.0174-20.9 g) was measured to assess mechanical allodynia. To measure cold allodynia, a drop of acetone was applied to the plantar hindpaw, and the time the animal spent licking, shaking or lifting the paw was measured (Tegeder et al., J Neurosci 24:1637-1645 (2004)). Paw withdrawal latency to radiant heat (lamp with 8 V, 50 W) assessed heat evoked pain (Ugo Basile).
(§2) DAHP was dissolved in 1:1 polyethylene glycol (PEG400) and 1×PBS, pH 7.4 (15 mg/ml) and administered i.p. or intrathecally (250 μg/kg/h; 5 μl/h). For all i.t. injections/infusions a spinal catheter (Recathco) was used and implanted as described (Kunz et al., Pain 110:409-418 (2004)). Infusions with an osmotic pump (Alzet). 6R-BH4 in ACSF was injected i.t. (10 μg, single 10 μl injection). N-acetyl-serotonin in 1×PBS pH 7.4 containing 3% ethanol was delivered by i.t. infusion (100 μg/kg/h; 5 μl/h). Control animals received the appropriate vehicle. All drugs from Sigma-Aldrich.

Sprague Dawley rats [3] = assay: Spared nerve injury (SNI) model: mechanical (von Frey) and cold (acetone) allodynia; assay type: in vivo, rat; details: SNI
Description: (§3) Adult male Sprague Dawley rats (150-200 g, Charles River Laboratories) were used. For the SNI model two branches of the sciatic nerve, the common peroneal and the tibial nerve, were ligated and sectioned distally. For the CCI model the sciatic nerve was constricted with three Dexon 4/0 ligatures. For the SNL model, the L5 spinal nerve was tightly ligated. All surgical procedures were under isoflurane anesthesia. For the Formalin test 50 μl of 5% formaldehyde solution were injected into a hindpaw and flinches were counted per minute up to 60 min. Paw inflammation was induced with 50 μl complete Freund's adjuvant (CFA) injected into a hindpaw. Nociceptive analysis was done blinded, and animals were fully habituated to the room and test cages. Mechanical allodynia was assessed with graded strength monofilament von Frey hairs (0.0174-20.9 gram, log scaled), cold allodynia with the acetone test and heat hyperalgesia with the Hargreaves test. Drugs (Sigma) were injected intraperitoneally or intrathecally through a spinal catheter, osmotic pumps were used for infusion. Control animals received vehicle. L4/5 DRG and spinal cord tissue was processed for QRT-PCR, Western blotting, in situ hybridization and immunofluorescence studies.
as §1, §2
Data are means ±SEM. The number of animals per group was 9-12. Areas under the “effect versus time” curves (AUC) were calculated using the linear trapezoidal rule and compared with Student's t-test or univariate analysis of variance (ANOVA) with subsequent t-tests employing a Bonferroni alpha-correction for multiple comparisons. All other data were analyzed with univariate ANOVA or ANOVA for repeated measurements. P at 0.05 for all tests.

[4] = test system: BH4 synthesis (GTP cyclohydrolase activity); assay: Tissue concentrations of neopterin and biopterin in L4/5 DRGs (LC/MS-MS); assay type: in vivo, rat; details: seven days after SNI
Description: Homogenized tissue was oxidized with iodine, and pteridines were extracted on Oasis MCX cartridges. Concentrations of total biopterin, neopterin, and the internal standard rhamnopterin were determined by LC/MS-MS. LC analysis under gradient conditions on a Nucleosil C8 column; MS-MS analyses on an API 4000 Q TRAP triple quadrupole mass spectrometer. Precursor-to-product ion transitions of m/z 236→192 for biopterin, m/z 252→192 for neopterin, m/z 265→192 for rhamnopterin were used for the MRM. Linearity from 0.1-50 ng/ml. The coefficient of correlation for all measured sequences was at least 0.99. The intra-day and inter-day variability was <10%.

Sprague Dawley rats [5] = assay: CFA-induced paw inflammation: thermal hyperalgesia (Hargreaves); assay type: in vivo, rat; details: single dose 50 mg/kg i.p.; 50 mg/kg
Description: as §3, with “Drugs (Sigma) were injected intraperitoneally or intrathecally through a spinal catheter, osmotic pumps were used for infusion. Control animals received vehicle. L4/5 DRG and spinal cord tissue was processed for QRT-PCR, Western blotting, in situ hybridization and immunofluorescence studies.” left out
For the Formalin test 50 μl of 5% formaldehyde solution were injected into one hindpaw and flinches were counted per minute up to 60 min. […]
as §1
Data are means ±SEM. […] Areas under the “effect versus time” curves (AUC) were calculated using the linear trapezoidal rule and compared with Student's t-test or univariate analysis of variance (ANOVA) with subsequent t-tests employing a Bonferroni alpha-correction for multiple comparisons. All other data were analyzed with univariate ANOVA or ANOVA for repeated measurements. […]

[6] = Observation of general well-being, body weight, gait, activity; assay type: in vivo, rat; details: 100 μg/kg/hr i.t. after SNI

## C=C[C@@]1(C)CC(=O)[C@]2(O)[C@@]3(C)[C@@H](O)CCC(C)(C)[C@@H]3[C@H](O)[C@H](OC(C)=O)[C@@]2(C)O1 [forskolin]
biopterin; homozygous carriers of the haplotype
  biopterin increase in whole blood: 20%
biopterin; non-carriers
  biopterin increase in whole blood: about 60%

## C[C@H](O)[C@H](O)[C@H]1CNc2nc(N)[nH]c(=O)c2N1 [6R-BH4, (6R)-5,6,7,8-tetrahydrobiopterin dihydrochloride]
[1]; 0.3-10 μM, n=95
  recorded cells with increased intracellular calcium: 67%
Sprague Dawley rats [2]; rat, in vivo
  latency of pain production: < 30 min

## CCN(CC)/[N+]([O-])=N/O.CCNCC [DEA-NONOate]
[1]; 50 μM, n=32, compared with BH4
  intracellular calcium increase: produced similar increases

## COC(=O)[C@@H](N)CCCNC(=N)N[N+](=O)[O-] [L-NAME]
Sprague Dawley rats [3]; 25 mg/kg i.p., 25 mg/kg
  mechanical and cold allodynia: significant effects for von Frey and acetone responses; also recorded: reduced SNI-evoked mechanical and cold allodynia
[1]; 50 μM
  BH4 mediated increase in [Ca2+]I: significantly reduced the BH4 mediated increase
[1]; L-NAME 50 μM, DEA-NONOate 50 μM
  DEA-NONOate induced increase of [Ca2+]I: has no effect
[1]; n=29, p<0.01
  reduction of the BH4 effect on intracellular calcium: 47±4%

## Nc1nc2ncc([C@H](O)[C@H](O)CO)nc2c(=O)[nH]1 [neopterin]
Sprague Dawley rats [2]; naïve rats, i.t. 10 μg, 10 μl
  mechanical and thermal pain sensitivity: had no effect on mechanical and thermal pain sensitivity; also recorded: had no significant effect

## CC(=O)NCCc1c[nH]c2ccc(O)cc12 [NAS, N-acetyl-serotonin]
[4]
  total biopterin levels in L4/5 DRGs: reduced biopterin levels; also recorded: significantly reduces total biopterin levels
Sprague Dawley rats [5]
  thermal hyperalgesia: significantly reduces thermal hyperalgesia
[6]
  overt adverse effects: without overt adverse effects
Sprague Dawley rats [3]; 100 μg/kg/h i.t. infusion 14 days
  mechanical and cold allodynia: significantly reduced mechanical and cold allodynia; also recorded: significantly reduces nerve-injury evoked mechanical and cold allodynia
